Columns and labels:
[1] = test system: Synechocystis 6803 transformed with pKW 1188; assay: Growth on BG-11 agar plate containing PPT or Bialaphos, vector transformant; type: cell-based; conditions: Bialaphos at 5 micrograms/ml
Experimental: (§1) Dilution of transformed Synechocystis 6803 was plated on BG-11 agar plate containing PPT (Table 4).

[2] = test system: Synechocystis 6803 transformed with pWP3210; assay: Growth on BG-11 agar plate containing PPT or Bialaphos, bar gene transformant; type: cell-based; conditions: Bialaphos at 5 micrograms/ml
Experimental: as §1

In the case of `C[C@H](NC(=O)[C@H](C)NC(=O)[C@@H](N)CCP(C)(=O)O)C(=O)O` [Bialaphos], the “growth on Bialaphos” value [1] is reported as “neither of these two transformants grow” and the “growth on Bialaphos” value [2] is reported as “neither of these two transformants grow”.
